Reference: patent publication US11492335B2, “Aryl or heteroaryl triazolone derivatives or salts thereof, or pharmaceutical compositions comprising the same” (YUHAN CORPORATION, priority 2018, dated 2022)
Where a name gives a salt, the structure may show the parent alone. Read-outs that look alike come from different tables or passages of the source.

Assays:
Assay type in all cases: biochemical
[1] = target: T1, recombinant human MAO-B (monoamine oxidase-B) (Homo sapiens, UniProt P27338); test: Activity on recombinant human MAO-B, Amplex Red method, 1 mM benzylamine substrate; conditions: read-out: Inhibitory Activity (IC50, nM) MAO-B
T1 construct: purchased Sigma-Aldrich
T1 sequence (P27338 1-520): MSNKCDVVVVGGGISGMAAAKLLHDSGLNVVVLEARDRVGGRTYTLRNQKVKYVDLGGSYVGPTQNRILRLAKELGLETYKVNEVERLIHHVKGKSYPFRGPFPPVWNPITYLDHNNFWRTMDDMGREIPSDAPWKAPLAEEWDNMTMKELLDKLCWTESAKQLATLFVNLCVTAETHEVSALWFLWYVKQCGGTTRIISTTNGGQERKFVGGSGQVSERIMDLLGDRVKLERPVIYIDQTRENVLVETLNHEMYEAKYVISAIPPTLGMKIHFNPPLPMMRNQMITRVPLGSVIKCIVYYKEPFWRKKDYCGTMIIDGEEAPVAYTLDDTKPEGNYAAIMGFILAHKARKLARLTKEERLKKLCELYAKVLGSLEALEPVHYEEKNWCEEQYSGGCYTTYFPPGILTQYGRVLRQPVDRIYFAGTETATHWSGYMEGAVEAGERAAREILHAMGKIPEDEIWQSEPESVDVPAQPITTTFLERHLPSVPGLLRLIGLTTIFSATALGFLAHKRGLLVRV
Procedure, shortened: (§1)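 Enzyme in pH 7.4 phosphate buffer; 30 min, 37° C with compound (DMSO <1%); start with 200 uM Amplex Red + 1 U/mL HRP + tyramine 0.5 mM (MAO-A) or benzylamine 1 mM (MAO-B); kinetic read ex 544/em 590, 1-2 h; % rate decrease vs DMSO control → IC50, 4-parameter fit.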

recombinant human VAP-1 = target: T2, recombinant human VAP-1 (Homo sapiens, UniProt Q16853); test: Activity on recombinant human VAP-1, Amplex Red HRP-coupled hydrogen peroxide assay, benzylamine substrate; conditions: recombinant human VAP-1, benzylamine substrate, read-out: Inhibitory Activity (IC50, nM) human VAP-1
T2 construct: purchased R&D systems
T2 sequence (Q16853 1-763): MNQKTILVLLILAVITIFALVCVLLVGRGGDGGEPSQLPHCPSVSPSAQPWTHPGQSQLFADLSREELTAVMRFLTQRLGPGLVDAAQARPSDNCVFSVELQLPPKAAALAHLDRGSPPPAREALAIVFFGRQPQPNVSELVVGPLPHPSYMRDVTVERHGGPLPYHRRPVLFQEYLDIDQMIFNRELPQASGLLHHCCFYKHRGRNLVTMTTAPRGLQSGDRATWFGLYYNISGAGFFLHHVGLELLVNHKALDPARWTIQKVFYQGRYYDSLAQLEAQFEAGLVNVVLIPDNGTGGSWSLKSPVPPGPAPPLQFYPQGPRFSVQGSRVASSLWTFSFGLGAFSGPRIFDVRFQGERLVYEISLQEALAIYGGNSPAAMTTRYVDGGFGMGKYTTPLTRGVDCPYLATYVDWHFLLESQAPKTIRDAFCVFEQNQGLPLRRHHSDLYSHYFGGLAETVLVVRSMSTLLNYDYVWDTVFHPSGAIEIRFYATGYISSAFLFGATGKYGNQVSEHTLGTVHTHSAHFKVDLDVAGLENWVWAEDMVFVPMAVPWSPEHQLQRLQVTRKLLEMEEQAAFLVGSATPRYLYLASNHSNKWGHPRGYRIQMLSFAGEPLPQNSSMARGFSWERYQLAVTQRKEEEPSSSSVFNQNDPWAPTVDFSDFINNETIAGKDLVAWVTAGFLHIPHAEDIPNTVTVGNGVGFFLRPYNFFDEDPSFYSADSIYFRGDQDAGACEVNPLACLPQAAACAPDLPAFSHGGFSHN
Procedure, shortened: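 Enzyme in 50 mM sodium phosphate (pH 7.4) is exposed to test compound for 30 min at 37 °C. Benzylamine (1 mM) with HRP and Amplex Red then starts the reaction, and the fluorescence rate, relative to a DMSO-only control, gives IC50.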

[2] = target: T3, recombinant human DAO (diamine oxidase) (Homo sapiens, UniProt P19801); test: Activity on recombinant human DAO, Amplex Red method, 1 mM putrescine substrate; conditions: recombinant human DAO, read-out: Inhibitory Activity (IC50, nM) DAO
T3 construct: purchased R&D systems
T3 sequence (P19801 20-751): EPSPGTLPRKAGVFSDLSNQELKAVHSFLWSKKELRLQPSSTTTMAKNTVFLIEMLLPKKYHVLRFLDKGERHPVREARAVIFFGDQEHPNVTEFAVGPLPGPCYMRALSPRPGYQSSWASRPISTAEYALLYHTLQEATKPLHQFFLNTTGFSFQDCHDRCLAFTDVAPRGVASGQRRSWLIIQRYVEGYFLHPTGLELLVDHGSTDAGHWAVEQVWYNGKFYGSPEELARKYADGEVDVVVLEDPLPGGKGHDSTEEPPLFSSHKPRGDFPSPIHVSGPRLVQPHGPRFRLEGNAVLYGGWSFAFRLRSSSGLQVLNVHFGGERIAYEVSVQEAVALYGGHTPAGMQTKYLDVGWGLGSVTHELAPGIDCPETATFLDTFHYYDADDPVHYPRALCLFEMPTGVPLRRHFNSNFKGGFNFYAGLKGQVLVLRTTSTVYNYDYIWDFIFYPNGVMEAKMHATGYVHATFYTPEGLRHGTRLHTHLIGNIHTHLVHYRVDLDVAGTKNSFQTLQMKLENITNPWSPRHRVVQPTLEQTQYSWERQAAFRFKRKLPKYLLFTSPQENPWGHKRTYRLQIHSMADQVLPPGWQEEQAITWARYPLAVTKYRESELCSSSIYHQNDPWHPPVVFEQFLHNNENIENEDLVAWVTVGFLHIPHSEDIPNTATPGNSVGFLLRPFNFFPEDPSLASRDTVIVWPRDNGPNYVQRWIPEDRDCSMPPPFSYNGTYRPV
Procedure, shortened: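 Inhibition of recombinant human DAO (diamine oxidase, R&D systems) was assessed with the Amplex Red Hydrogen Peroxide Assay Kit. Hydrogen peroxide produced from 1 mM putrescine was detected through an HRP-coupled reaction that converts Amplex Red into fluorescent resorufin, read at 544 nm excitation and 590 nm emission. IC50 values came from four-parameter logistic fits in GraphPad Prism.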

[3] = target: T4, recombinant human MAO-A (monoamine oxidase-A) (Homo sapiens, UniProt P21397); test: Activity on recombinant human MAO-A, Amplex Red method, 0.5 mM tyramine substrate; conditions: read-out: Inhibitory Activity (IC50, nM) MAO-A
T4 construct: purchased Sigma-Aldrich
T4 sequence (P21397 1-527): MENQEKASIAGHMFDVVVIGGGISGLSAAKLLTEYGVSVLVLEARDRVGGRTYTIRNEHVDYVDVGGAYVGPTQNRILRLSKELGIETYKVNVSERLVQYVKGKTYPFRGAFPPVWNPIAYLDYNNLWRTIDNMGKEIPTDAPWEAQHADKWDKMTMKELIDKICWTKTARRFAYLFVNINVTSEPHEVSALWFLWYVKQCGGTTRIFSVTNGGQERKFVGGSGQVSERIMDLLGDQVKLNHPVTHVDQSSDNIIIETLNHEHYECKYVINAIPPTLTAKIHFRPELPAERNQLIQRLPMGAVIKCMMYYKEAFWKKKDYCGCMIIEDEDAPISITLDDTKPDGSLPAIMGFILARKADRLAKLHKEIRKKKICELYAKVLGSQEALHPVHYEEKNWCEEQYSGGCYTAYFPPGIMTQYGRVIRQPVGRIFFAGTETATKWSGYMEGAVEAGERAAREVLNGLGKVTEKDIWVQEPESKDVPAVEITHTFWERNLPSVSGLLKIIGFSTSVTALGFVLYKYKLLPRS
Procedure, shortened: as §1

[4] = 1 mM putrescine, * = between 10 and 100 nM, ** = between 300 and 1000 nM

SMILES	IC50 ([1]; 1 mM benzylamine) [nM]	IC50 (recombinant human VAP-1; 30 min preincubation at 37° C.) [nM]	IC50 [2, 4] [nM]	IC50 ([3]; 0.5 mM tyramine) [nM]	IC50 ([1]; 1 mM benzylamine substrate) [nM]	IC50 (recombinant human VAP-1) [nM]	IC50 ([2]; 1 mM putrescine substrate) [nM]	IC50 ([3]; 0.5 mM tyramine substrate) [nM]
NC/C(=C\F)Cn1ncn(-c2cccc(-c3ccc(-c4nnc[nH]4)cc3)c2)c1=O [Example 59, 2-[(2E)-2-(aminomethyl)-3-fluoroprop-2-en-1-yl]-4-[4′-(4H-1,2,4-triazol-3-yl)biphenyl-3-yl]-2,4-dihydro-3H-1,2,4-triazol-3-one]	> 10000	0.62	< 100	> 100000	–	–	–	–
Cc1cc(-n2cnn(C/C(=C/F)CN)c2=O)cnc1Br [Example 27, 2-[(2E)-2-(aminomethyl)-3-fluoroprop-2-en-1-yl]-4-(6-bromo-5-methylpyridin-3-yl)-2,4-dihydro-3H-1,2,4-triazol-3-one hydrochloride]	63	2.5	5.4	> 100000	–	–	–	–
Cc1cc(-c2ccc(C(=O)N3CCOCC3)cc2)cnc1-n1cnn(C/C(=C/F)CN)c1=O [Example 146, 2-[(2E)-2-(aminomethyl)-3-fluoroprop-2-en-1-yl]-4-{3-methyl-5-[4-(morpholin-4-ylcarbonyl)phenyl]pyridin-2-yl}-2,4-dihydro-3H-1,2,4-triazol-3-one hydrochloride]	> 10000	0.7	17000	> 100000	–	–	–	–
CN1CCOc2cc(-c3cccc(-n4cnn(C/C(=C/F)CN)c4=O)n3)ccc21 [Example 202, 2-[(2E)-2-(aminomethyl)-3-fluoroprop-2-en-1-yl]-4-[6-(4-methyl-3,4-dihydro-2H-1,4-benzoxazin-7-yl)pyridin-2-yl]-2,4-dihydro-3H-1,2,4-triazol-3-one hydrochloride]	–	–	–	–	1300	1	240	> 100000
NC/C(=C\F)Cn1ncn(-c2cccc(-c3ccc(-c4ncon4)cc3)c2)c1=O [Example 61, 2-[(2E)-2-(aminomethyl)-3-fluoroprop-2-en-1-yl]-4-[4′-(1,2,4-oxadiazol-3-yl)biphenyl-3-yl]-2,4-dihydro-3H-1,2,4-triazol-3-one]	998	0.65	< 100	62000	–	–	–	–
CN(C)c1ccc(-c2cccc(-n3cnn(C/C(=C/F)CN)c3=O)n2)cn1 [Example 188, 2-[(2E)-2-(aminomethyl)-3-fluoroprop-2-en-1-yl]-4-[6′-(dimethylamino)-2,3′-bipyridin-6-yl]-2,4-dihydro-3H-1,2,4-triazol-3-one hydrochloride]	–	–	–	–	23000	0.6	4	> 100000
Cc1cc(-c2cccc(-n3cnn(C/C(=C/F)CN)c3=O)c2)cc2c1NC(=O)CC2 [Example 102, 6-(3-{1-[(2E)-2-(aminomethyl)-3-fluoroprop-2-en-1-yl]-5-oxo-1,5-dihydro-4H-1,2,4-triazol-4-yl}phenyl)-8-methyl-3,4-dihydroquinolin-2(1H)-one hydrochloride]	> 10000	0.2	28	> 100000	–	–	–	–
Cc1cc(-c2ccc(-c3noc(C(C)C)n3)cc2)cnc1-n1cnn(C/C(=C/F)CN)c1=O [Example 142, 2-[(2E)-2-(aminomethyl)-3-fluoroprop-2-en-1-yl]-4-(3-methyl-5-{4-[5-(propan-2-yl)-1,2,4-oxadiazol-3-yl]phenyl}pyridin-2-yl)-2,4-dihydro-3H-1,2,4-triazol-3-one hydrochloride]	4720	0.63	57	> 100000	–	–	–	–
NC/C(=C\F)Cn1ncn(-c2cccc(C#Cc3ccc4c(c3)CCC(=O)N4)n2)c1=O [Example 254, 6-[2-[6-[1-[(E)-2-(aminomethyl)-3-fluoro-allyl]-5-oxo-1,2,4-triazol-4-yl]-2-pyridyl]ethynyl]-3,4-dihydro-1H-quinolin-2-one]	–	–	–	–	> 10000	0.2	35	> 100000
Cn1cc(C#Cc2cccc(-n3cnn(C/C(=C/F)CN)c3=O)n2)cn1 [Example 257, 2-[(2E)-2-(aminomethyl)-3-fluoroprop-2-en-1-yl]-4-{6-[(1-methyl-1H-pyrazol-4-yl)ethynyl]pyridin-2-yl}-2,4-dihydro-3H-1,2,4-triazol-3-one hydrochloride]	–	–	–	–	5700	0.4	90	> 100000
NC/C(=C\F)Cn1ncn(-c2ncc(Br)cc2F)c1=O [Example 36, 2-[(2E)-2-(aminomethyl)-3-fluoroprop-2-en-1-yl]-4-(5-bromo-3-fluoropyridin-2-yl)-2,4-dihydro-3H-1,2,4-triazol-3-one hydrochloride]	3350	1.2	23	> 100000	–	–	–	–
